# Substitutions are numbered along the chain they refer to.
# Legend:
# Type in all cases: binding
# STAT3 = STAT3 (Homo sapiens, UniProt P40763); test: CETSA of STAT3 in lysates from NK-92 cells; design: endogenous in cells; host or cells: NK-92 (DSMZ) lysate
# Experimental: NK-92 cells (DSMZ) were cultured in -MEM containing 12.5% fetal bovine serum (FBS), 12.5% horse serum, 2 mM L-glutamine, penicillin/streptomycin and 50 U/ml IL -2.
# NK-92 cells were treated with test compound or DMSO in 1.5 ml medium in 12 -well plates (Corning) for 2 h (final DMSO concentration 0.2%), in the presence of 50 ng/ml IL -12 (PeproTech). […] Cells were harvested by washing twice with ice -cold TBS, followed by resuspension in TBS supplemented with protease/phosphatase inhibitors (100 ng/ml aprotinin, 1 mM Na3VO4, 10 mM NaF, 1 mM PMSF). […] Cells were lysed using three freeze -thaw cycles with liquid nitrogen and lysates cleared by centrif ugation.
# NK-92 cell lysates were prepared for CETSA experiments by washing cultured cells once with TBS and resuspending in TBS supplemented with Halt Protease In hibitor Cocktail, EDTA-free (Fisher Scientific) at 3 x 10^6 cells per 100 µl. Cells were lysed using three freeze -thaw cycles with liquid nitrogen and lysates cleared by centrifugation.
# CETSA experiments were performed essentially using the published protocol. […] Briefly, NK-92 cell lysates were incubated with test compound or DMSO for 15 min at room temperature (final DMSO concentration 2%). During this time, the treated lysate was divided into 10x 50 µl aliquots in 0.2 ml reaction tubes. Samples were then heated to the designated temperatures in a Veriti Pro Thermocycler (Thermo Fishe r Scientific) for 3 min, followed by 3 min incubation at room temperature, and then placed on ice. […] The soluble fractions were subsequently analyzed by Western blotting.
# The components of cell lysates from treated cells, or heat-treated lysates from CETSA, were separated by SDS-PAGE (10%), transferred to nitrocellulose membrane (Bio-Rad) and detected using monoclonal rabbit primary antibodies (Cell Signaling), -rabbit-HRP secondary antibody (Dako) and Western Lightning Plus chemiluminescence reagent (Perkin Elmer).
# Bands were visualized using an ImageQuant system (GE Healthcare) and quantitated using ImageJ software (NIH).
# STAT4 Lys580Ala = biological target: T1, STAT4 Lys580Ala (Homo sapiens, UniProt Q14765, K580A); test: Isothermal titration calorimetry (ITC), STAT4 Lys580Ala; conditions: n = 4
# T1 construct: 6xHis; made in house
# T1 sequence (Q14765 1-748 K580A): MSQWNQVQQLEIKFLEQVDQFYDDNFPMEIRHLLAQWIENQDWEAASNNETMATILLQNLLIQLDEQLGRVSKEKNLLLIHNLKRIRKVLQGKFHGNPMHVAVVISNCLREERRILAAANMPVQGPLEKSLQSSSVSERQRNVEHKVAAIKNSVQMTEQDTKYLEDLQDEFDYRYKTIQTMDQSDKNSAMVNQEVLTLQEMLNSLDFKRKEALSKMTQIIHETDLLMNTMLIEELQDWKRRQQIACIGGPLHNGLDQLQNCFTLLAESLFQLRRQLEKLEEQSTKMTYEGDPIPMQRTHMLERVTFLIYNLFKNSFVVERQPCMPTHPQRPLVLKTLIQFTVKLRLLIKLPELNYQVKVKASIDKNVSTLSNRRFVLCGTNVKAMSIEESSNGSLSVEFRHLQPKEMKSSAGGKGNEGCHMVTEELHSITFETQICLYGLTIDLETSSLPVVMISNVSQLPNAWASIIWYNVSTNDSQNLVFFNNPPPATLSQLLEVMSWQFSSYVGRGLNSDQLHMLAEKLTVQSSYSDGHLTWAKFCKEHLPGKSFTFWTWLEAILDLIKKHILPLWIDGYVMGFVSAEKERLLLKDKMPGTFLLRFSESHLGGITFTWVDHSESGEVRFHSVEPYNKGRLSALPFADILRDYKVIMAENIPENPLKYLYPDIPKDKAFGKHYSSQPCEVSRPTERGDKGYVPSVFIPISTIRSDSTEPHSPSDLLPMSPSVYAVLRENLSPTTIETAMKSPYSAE
# Experimental: Isothermal Titration Calorimetry
# Purification of 6xHis-tagged proteins for ITC experiments was carried out by affinity chromatography on His-Bind resin. The eluting fractions were analyzed by SDS -PAGE.
# Proteins were dialyzed against ITC buffer (10 mM Tris pH 8.0, 50 mM NaCl) using dialysi s tubing with a 50 kDa cut-off. ITC experiments were performed using a VP-ITC Micro Calorimeter (MicroCal). 6m was dissolved as a 100 mM stock in DMSO and diluted 1/1000 in ITC buffer (Tris pH 8.0 and 50 mM NaCl), resulting in a final concentration of 100 µM. 8k was dissolved as a 5 mM stock in ITC buffer and diluted 1/25 in ITC buffer with DMSO, resulting in a final concentration of 200 µM 8k. DMSO was added to a final concentration of 2% (v/v). To avoid errors caused by the detection of dilution heat, 0.1 % (v/v) DMSO for 6m or 2% (v/v) DMSO for 8k experiments was added to the buffers containing the proteins and to the reference buffer. Proteins were degassed before the experiments using a ThermoVac sample degassing station. The following conditions were used for ITC experiments: 10 µM STAT4 protein for 6m or 20 µM STAT4 protein for 8k experiments, 100 µM 6m or 200 µM 8k, 28 injections with 10 µL single injection volume, 250 s initial delay, 500 s spacing between injections, 250 µcal/s reference power, 300 rpm stirring at 25 °C for 6m or 220 rpm stirring at 25 °C for 8k. […]
# STAT4 Arg598Ala = biological target: T2, STAT4 Arg598Ala (Homo sapiens, UniProt Q14765, R598A); test: Isothermal titration calorimetry (ITC), STAT4 Arg598Ala; conditions: n = 4
# T2 construct: 6xHis; made in house
# T2 sequence (Q14765 1-748 R598A): T1 sequence (Q14765 1-748 K580A) with A580K, R598A
# STAT3, sequence (P40763 whole entry): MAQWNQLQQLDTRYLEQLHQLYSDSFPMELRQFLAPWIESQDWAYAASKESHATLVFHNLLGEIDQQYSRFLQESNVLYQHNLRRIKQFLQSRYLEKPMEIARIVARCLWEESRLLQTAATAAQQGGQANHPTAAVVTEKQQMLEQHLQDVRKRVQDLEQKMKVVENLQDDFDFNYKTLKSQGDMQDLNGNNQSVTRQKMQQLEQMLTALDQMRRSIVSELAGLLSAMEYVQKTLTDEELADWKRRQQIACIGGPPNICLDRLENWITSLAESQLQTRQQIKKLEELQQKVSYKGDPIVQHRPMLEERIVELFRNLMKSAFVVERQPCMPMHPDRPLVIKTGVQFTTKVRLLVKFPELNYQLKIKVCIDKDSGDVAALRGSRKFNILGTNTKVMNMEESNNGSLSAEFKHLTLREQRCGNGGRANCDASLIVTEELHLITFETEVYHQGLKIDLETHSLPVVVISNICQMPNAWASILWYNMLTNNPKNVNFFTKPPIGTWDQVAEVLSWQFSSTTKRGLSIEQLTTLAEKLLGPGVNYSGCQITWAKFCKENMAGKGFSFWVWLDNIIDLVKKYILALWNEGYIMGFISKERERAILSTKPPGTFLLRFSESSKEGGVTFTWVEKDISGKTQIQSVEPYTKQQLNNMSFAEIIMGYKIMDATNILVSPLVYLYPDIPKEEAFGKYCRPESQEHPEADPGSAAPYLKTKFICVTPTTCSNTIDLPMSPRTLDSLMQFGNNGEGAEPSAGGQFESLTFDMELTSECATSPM
SMILES,"ΔT agg of STAT3 (STAT3; CETSA, NK-92 cell lysates, versus DMSO control) [°C]","T agg of STAT3 (STAT3; CETSA, NK-92 cell lysates, DMSO control 51.0 ± 0.3 °C, n = 3) [°C]","stabilization of STAT3 against thermal degradation (STAT3; lysates from NK-92 cells, Ac-pYLPQTV-NH2 at 100 µM)",binding to STAT4 point mutant Lys580Ala (ITC) (STAT4 Lys580Ala),binding to STAT4 point mutant Arg598Ala (ITC) (STAT4 Arg598Ala)
Cc1cc(-c2ccc(C(F)(F)P(=O)(O)O)c(F)c2)cs1 [Compound 8k],−0.4,50.6 ± 0.2,does not stabilize,,
O=P(O)(O)Oc1ccc(-c2ccc3ccccc3c2)cc1F [Compound 6m],,,,too weak for reliable quantification,no heat release

# From paper PMC12087874, “Biaryl Phosphates and Phosphonates as Selective Inhibitors of the Transcription Factor STAT4” (Angewandte Chemie (International Ed. in English), 2025)
